Reference: US20160169914A1, “KINETICS BIOMARKERS FOR NEURODEGENERATION” (KineMed, Inc., priority 2014, published 2016)

How the values were obtained:
[1] = tested on: ALS; conditions: approved by the FDA in 1995; cited from earlier work
[2] = tested on: BDNF (brain-derived neurotrophic factor) transport rate; conditions: PD patients
Method: Statistical significance was assessed by 1-way ANOVA with Tukey post-hoc testing. A P value less than 0.05 was considered statistically significant (* P<0.05). […] Solid lines indicate regression; dashed lines indicate 95% confidence intervals. The statistical test that generated both the r^2 and P values was a linear regression (mean±SD were generated by technical replicates of repeated sample preparations and analyses).
The study group consisted of symptomatic PD patients, all on standard anti-PD medications, and 6 non-PD volunteers. […] Unified PD Rating Scale, PART III, and Hoehn and Yahr scores were obtained for each subject. […] Compliance to the experimental protocol was monitored by the clinical staff through collection of blood plasma samples for body water enrichment. […]
Purified cargo proteins were hydrolyzed by treatment with 6N HCl for 16 hours at 110° C. Protein derived amino acids were derivatized to pentafluorobenzyl derivatives, and ^2H incorporation in alanine released from total vesicular proteins was measured by GC/MS, as described elsewhere (Busch R, et al., Biochim Biophys Acta., 1760(5):730-44 (2006)). ^2H enrichment was calculated as the percent increase over the natural abundance of alanine derivative present as the (M+1) mass isotopomer (EM1) (Busch R, et al., Biochim Biophys Acta., 1760(5):730-44 (2006)). […]

[3] = cited from earlier work
[4] = Tolerability of high body water enrichments of 2H2O; assay type: in vivo, human; conditions: 1-10% of total body water labeled, maintained for weeks or months; humans (>100 persons) and experimental animals
Excerpt: Relatively high body water enrichments of ^2H2O (e.g., 1-10% of the total body water is labeled) may be achieved relatively inexpensively using the techniques of the invention. […] This finding in a large number of human subjects (>100 persons) is contrary to previous concerns about vestibular toxicities at high doses of ^2H2O. One of the Applicants has discovered that as long as rapid changes in body water enrichment are prevented (e.g., by initial administration in small, divided doses), high body water enrichments of ^2H2O can be maintained with no toxicities. For example, the low expense of commercially available ^2H2O allows long-term maintenance of enrichments in the 1-5% range at relatively low expense (e.g., calculations reveal a lower cost for 2 months labeling at 2% ^2H2O enrichment, and thus 7-8% enrichment in the alanine precursor pool, than for 12 hours labeling of ^2H-leucine at 10% free leucine enrichment, and thus 7-8% enrichment in leucine precursor pool for that period).

Nc1nc2ccc(OC(F)(F)F)cc2s1 [Riluzole]
disease progression [1]: only delays disease progression modestly

C#CCN[C@@H]1CCc2ccccc21 [rasagiline]
deficits in transport rates of BDNF in CSF, compared to patients not treated with Azilect ([2]; rasagiline 1 mg/day, 1-way ANOVA with Tukey post-hoc, * P<0.05, FIG. 7 panel A): reduced deficits in transport rates of BDNF | correlation between reduced delays in rates of BDNF transport and duration of treatment ([2]; duration of treatment in years prior to LP, linear regression, FIG. 7 panel B): strong correlation

COc1ccc2c(c1OC)C(=O)O[C@@H]2[C@H]1c2c(cc3c(c2OC)OCO3)CCN1C [Noscapine]
half-life in CNS tissue ([3]; CNS tissue (brain and spinal cord) and PNS): long half-life | blood brain barrier penetration ([3]; in vivo): penetrates the blood brain barrier

[2H]O[2H] [^2H2O]
toxicity at high body water enrichment [4]: without any evidence of toxicity
